# B1: rI domain: recombinant murine I-domain of CR3 alpha-subunit, 23 kilodalton peptide with Myc and His domains (SEQ ID NO: 11) (protein, listed as Mus musculus)
# chain: FPQQESDIVFLIDGSGSINNIDFQKMKEFVSTVMEQFKKSKTLFSLMQYSDEFRIHFTFNDFKRNPSPRSHVSPIKQLNGRTKTASGIRKVVRELFHKTNGARENAAKILVVITDGEKFGDPLDYKDVIPEADRAGVIRYVIGVGNAFNKPQSRRELDTIASKPAGEHVFQVDNFEALNTIQNQLQEKIFAIPAAASFL
# modifications: Myc and His tags
# Assays:
# [1] = test system: primary cervical cells; experiment: Association and invasion assays, primary cervical cells (cell type not specified); assay type: cell-based, human; settings: negative controls: 200 nM 4-α phorbol, 3 mM hydrogen peroxide
# Experimental: The anti-PLD antibody was screened for specificity to PLD using assays well-known to the art.
# (§1) 8. N. gonorrhoeae Attachment to and Invasion of Primary, Human, Cervical Cells. Primary cervical cell monolayers were infected with wild-type or PLD mutant gonococci as outlined above. Variable concentrations of Streptomyces spp. PLD (SsPLD) (Sigma), PMA, or 4-α phorbol were included in association (adherence and invasion) or invasion assays, as noted. Cervical cells were preincubated (30 minutes, 37° C.) with 200 nM PMA or 4-α phorbol before the addition of gonococci. 10 units ml^−1 SsPLD was added simultaneously with gonococci. Alternatively, where noted, cervical cell monolayers were pre-incubated (30 minutes, 37° C.) with pervanadate, which was made by mixing 100 μM ortho-sodium vanadate in 3 mM hydrogen peroxide. In separate assays, infection supernatants were collected from wild-type or PLD mutant-infected cervical cell monolayers, gonococci were removed by filtration through a 0.22 μm syringe filter (i.e., wild-type or mutant primed supernatants) and were added to association and/or invasion assays, as noted. The ability of gonococci to adhere to and/or invade pex and pen cells was quantitatively determined using standard gentimicin-resistance assays, performed as described previously (Edwards et al., 2000), and in which chemical or protein additives were included or excluded from the invasion assay as described above. The total association (i.e., adherence and invasion) of gonococci with pex and pen cells was quantitated by the omission of gentimicin from the above described invasion assay. Percent invasion of N. gonorrhoeae 1291 or 1291ΔPLDin the presence or absence of experimental additives was determined as a function of the original inoculum and the number of colonies formed with subsequent plating of the cellular lysate. A Kruskal-Wallis non-parametric analysis of variance was used to determine the statistical significance of the association and invasion assays described above.
# [2] = test system: primary ectocervical cells; experiment: Gentamycin-resistance invasion assay of N. gonorrhoeae 1291 with inhibitors of cytoskeletal motility and protein synthesis, ectocervical cells; assay type: cell-based, human; settings: for effect on bacterial entry / gonococcal invasion: both cell types (endo- and ectocervical)
# Experimental: Invasion Assays in the Presence of Inhibitors of Cytoskeletal Motility and Protein Synthesis: Cervical cells were passed to 12 mm collagen-coated coverslips as outlined above. Prior to infection with N. gonorrhoeae 1291 wild-type cells, primary cell cultures were left untreated, or they were pre-incubated with 300 nM wortmannin (Sigma), 1 μM cytochalasin D (Sigma), or 400 mM ethylene glycol bis-(2-aminoethyl ether)-N,N, N′, N′ tetraacetic acid ((EGTA) Amresco, Solon, Ohio) for 2 h, 30 min, and 30 min, respectively, or they were pretreated with 100 µg/ml nocodazole (Calbiochem-Novabiochem Corp., La Jolla, Calif.) for 1 h at 4° C. followed by a 30 min incubation at 37° C. The requirement for de novo protein synthesis, either by the bacteria or by the primary cervical cells, was tested by pretreatment (30 min, 37° C.) of the bacterial cultures or cervical cell monolayers with 4 μg/ml chloramphenicol (Sigma) or 25 μM cycloheximide (Calbiochem-Novabiochem Corp.), respectively. All chemical reagents used were maintained in the infection medium throughout the course of the infection. […] Infection was allowed to progress at 37° C., 5% CO2, for 1.5 h after which the medium was removed, the cells were rinsed with PBS, and then incubated with KGM-2 containing 100 μg/ml gentamycin to kill extracellular bacteria. Post incubation the cervical cells were lysed with 0.5% saponin to release invasive bacteria. Percent invasion was determined as a function of the original inoculum and the number of colonies formed with subsequent plating of the cellular lysate. A Kruskal-Wallace ANOVA was used to determine the statistical significance of the calculated percent invasion for each of the cytoskeletal motility inhibitors used with respect to the untreated, infected cell cultures.
# [3] = test system: PLD; experiment: PLD activity (Amplex Red Phospholipase D Assay Kit) in gonococci, infected cervical cell lysates, fractions and supernatants; assay type: biochemical, N. gonorrhoeae
# Experimental: (§2) 4. Determination of PLD Activity. PLD activity was accessed using the Amplex™ Red Phospholipase D Assay Kit (Molecular Probes, Eugene Oreg.). Wild-type and PLD mutant gonococci were suspended in PLD assay buffer to a final concentration of 10^7 bacteria ml^−1, and activity was determined according to the manufacturer's protocol. Assessment of PLD activity at acidic pH was determined in a two-step assay according to the manufacturer's protocol. For the first step, 10^8 gonococci were suspended in PBS with the pH adjusted to 3.0, 4.5, or 6.0. Gonococcal suspensions were diluted 10-fold in PLD assay buffer for the second step of the reaction. Cervical cell fractions were prepared as outlined below and PLD activity was assessed at neutral pH according to the manufacturer's protocol.
# 5. Fractionation of Primary Cervical Cells. Uninfected (control) and infected cervical cell monolayers were lysed in buffer A (50 mM tris, pH 7.5; 10 mM NaCl, 1 mM KCl; 2 mM MgCl2, 1 mM PMSF) by scraping cervical cells from tissue culture dishes placed on ice. The cell lysate was sonicated (two bursts of 20 seconds each). Cell debris and the nuclear fraction was removed by centrifugation (750×g, 10 minutes), and the supernatant from this spin was then subjected to filtration through a low-protein binding 0.22 μm syringe filter to ensure removal of gonococci. Alternatively, gonococci were removed by immunoprecipitation (as described by Wen et al., 2000) using the monoclonal antibody, 2C3, which recognizes the H.8 outer membrane protein of the pathogenic Neisseria. Sucrose was added to the resulting gonococcus-depleted supernatant (S1) to a final concentration of 300 mM. Ultracentrifugation (150,000×g, 90 minutes) was then performed to produce the plasma membrane-(pellet) and cytosol (supernatant 2, S2)-enriched fractions. The membrane-enriched fraction was resuspended in PLD assay buffer (50 mM Tris, 5 mM CaCl2, pH 8.0). S2 was concentrated by filtration through Centricon YM-30 centrifugal filter units (Millipore) after which cytosolic constituents were recovered in PLD assay buffer. Where indicated, prior to infection studies primary pex and pen cell monolayers were treated with 300 nM wortmannin (Sigma) (2 hours, 37° C.) or 1 μM cytochalasin D (Sigma) (30 minutes, 37° C.) to inhibit macropinocytosis of gonococci. Wortmannin and cytochalasin D were maintained in cervical cell cultures during the course of infection.
# as §2, with “Determination of” for “4. Determination of”, “Assessment of gonococcal PLD activity” for “Assessment of PLD activity”
# Fractionation of Primary Cervical Cells. Uninfected (control) and infected cervical cell monolayers were lysed in buffer A (50 mM tris, pH 7.5; 10 mM NaCl, 1 mM KCl; 2 mM MgCl2, 1 mM PMSF) by scraping cervical cells from tissue culture dishes placed on ice. The cell lysate was sonicated (two bursts of 20 seconds each). […] Sucrose was added to the resulting gonococcus-depleted supernatant (S1) to a final concentration of 300 mM. Ultracentrifugation (150,000×g, 90 minutes) was then performed to produce the plasma membrane-(pellet) and cytosol (supernatant 2, S2)-enriched fractions. The membrane-enriched fraction was resuspended in PLD assay buffer (50 mM Tris, 5 mM CaCl2, pH 8.0). […]
# [4] = test system: Ectocervical Cells; experiment: Association and invasion (gentimicin-resistance) assays, primary ectocervical (pex) cells; assay type: cell-based, human
# Experimental: as §1
# N. gonorrhoeae Attachment to and Invasion of Primary, Human, Cervical Cells. Primary cervical cell monolayers were infected with wild-type or PLD mutant gonococci as outlined above. Variable concentrations of PtC (Sigma), ethanol, 2-butanol, or Streptomyces spp. PLD (SsPLD) (Sigma) were included in association (adherence and invasion) or invasion assays, as noted. PtC, ethanol, 2-butanol, or 10 units ml^−1 SsPLD were added simultaneously with gonococci. In separate assays, infection supernatants were collected from wild-type or PLD mutant-infected cervical cell monolayers, gonococci were removed by filtration through a 0.22 μm syringe filter (to yield primed wild-type or mutant supernatants), which were then added to association and/or invasion assays, as noted. The ability of gonococci to adhere to and/or invade pex and pen cells was quantitatively determined using standard gentimicin-resistance assays, performed as described previously (Edwards et al., 2000) and in which chemical or protein additives were included or excluded from the invasion assay as described above. The total association (i.e., adherence and invasion) of gonococci with pex and pen cells was quantitated by the omission of gentimicin from the above described invasion assay. Percent invasion of N. gonorrhoeae 1291 or 1291ΔPLD in the presence or absence of experimental additives was determined as a function of the original inoculum and the number of colonies formed with subsequent plating of the cellular lysate. Inhibition of gonococcal attachment and/or invasion by exogenous PtC, ethanol, or 2-butanol was determined as a normalized function of the ability of gonococci to attach to and/or invade primary cervical cells in the absence of the competimer inhibitor. A Kruskal-Wallis non-parametric analysis of variance was used to determine the statistical significance of the association and invasion assays described above.
# [5] = test system: primary human ectocervical cells; experiment: rI-domain inhibition of adherence and invasion of primary ectocervical cells by N. gonorrhoeae 1291; assay type: cell-based
# Experimental: Studies were performed evaluating the ability of the rI-domain to inhibit adherence and invasion of primary human ectocervical cells by Neisseria gonorrhoeae. The cervical cells were infected with 107 N. gonorrhoeae strain 1291. Recombinant I-domain is a potent inhibitor of ectocervical cell association by Neisseria gonorrhoeae. As little as 1 ng of rI-domain gives over 90% inhibition of invasion. With decreasing amounts of rI-domain the inhibition decreases in a dose dependent fashion.
# [6] = PtC 10.0 µg/ml, wild-type gonococci
molecule,measurement,setting,value
CC1=C[C@H]2[C@@]3(O)[C@H](C)[C@@H](O)[C@]4(O)[C@H]([C@@H]3C=C(CO)C[C@@]2(O)C1=O)C4(C)C [4-α-phorbol],"effect on gonococcal association, invasion or CR3 cell surface recruitment",[1],had no affect
"O=C(N[C@H](CO)[C@H](O)c1ccc([N+](=O)[O-])cc1)C(Cl)Cl [Chloramphenicol, chloramphenicol]",effect on bacterial entry / gonococcal invasion,[2],did not inhibit gonococcal invasion
"C[C@@H]1C[C@@H]([C@H](O)CC2CC(=O)NC(=O)C2)C(=O)[C@@H](C)C1 [Cycloheximide, cycloheximide]",effect on bacterial entry / gonococcal invasion,[2],did not inhibit gonococcal invasion
"C=C1[C@@H](C)[C@H]2[C@H](Cc3ccccc3)NC(=O)[C@]23[C@H](OC(C)=O)/C=C/[C@@](C)(O)C(=O)[C@@H](C)C/C=C/[C@H]3[C@@H]1O [Cytochalasin D, cytochalasin D]",PLD Activity in Ectocervical Cell Fractions [Mean (variance)],"[3]; Cytosolic fraction, 1291ΔPLD infected w/ inhibitor (300 nM wortmannin or 1 μM cytochalasin D)",0.330 (0.07) Fluorescence Units
same,PLD Activity in Ectocervical Cell Fractions [Mean (variance)],"[3]; Cytosolic fraction, Uninfected w/ inhibitor (300 nM wortmannin or 1 μM cytochalasin D)",0.395 (0.03) Fluorescence Units
same,PLD Activity in Ectocervical Cell Fractions [Mean (variance)],"[3]; Cytosolic fraction, WT 1291 infected w/ inhibitor (300 nM wortmannin or 1 μM cytochalasin D)",0.462 ((0.03) Fluorescence Units
same,PLD Activity in Ectocervical Cell Fractions [Mean (variance)],"[3]; Membrane fraction, 1291ΔPLD infected w/ inhibitor (300 nM wortmannin or 1 μM cytochalasin D)",0.393 (0.01) Fluorescence Units
same,PLD Activity in Ectocervical Cell Fractions [Mean (variance)],"[3]; Membrane fraction, Uninfected w/ inhibitor (300 nM wortmannin or 1 μM cytochalasin D)",0.389 (0.01) Fluorescence Units
same,PLD Activity in Ectocervical Cell Fractions [Mean (variance)],"[3]; Membrane fraction, WT 1291 infected w/ inhibitor (300 nM wortmannin or 1 μM cytochalasin D)",0.436 (0.03) Fluorescence Units
same,effect on bacterial entry / gonococcal invasion,[2],prohibited bacterial entry
"O=C(O)CN(CCOCCOCCN(CC(=O)O)CC(=O)O)CC(=O)O [EGTA, ethylene glycol bis-(2-aminoethyl ether)-N,N, N′, N′ tetraacetic acid]",effect on bacterial entry / gonococcal invasion,[2],prohibited bacterial entry
"COC(=O)Nc1nc2ccc(C(=O)c3cccs3)cc2[nH]1 [Nocodazole, nocodazole]",decrease in gonococcal invasion,[2]; pretreatment of primary cervical cell monolayers,~67%
phosphatidylcholine [PtC],Inhibition (%),[4]; [6],98.7786 (0.08) %
same,Invasion (%),[4]; [6],0.0331 (0.01) %
same,Inhibition (%),[4]; PtC 0.01 g/ml,68.8105 (2.15) %
same,Invasion (%),[4]; PtC 0.01 g/ml,0.8379 (0.03) %
same,Inhibition (%),[4]; PtC 0.1 g/ml,87.3571 (0.28) %
same,Invasion (%),[4]; PtC 0.1 g/ml,0.3418 (0.01) %
same,Inhibition (%),[4]; PtC 1.0 g/ml,92.4681 (0.38) %
same,Invasion (%),[4]; PtC 1.0 g/ml,0.2038 (0.01) %
B1,% inhibition of invasion of primary exocervical cells,[5]; rI domain 1 pg/ml,17.4%
same,% inhibition of invasion of primary exocervical cells,[5]; rI domain 10 pg/ml,56.3%
same,% inhibition of invasion of primary exocervical cells,[5]; rI domain 100 pg/ml,77.5%
same,% inhibition of invasion of primary exocervical cells,[5]; rI domain 1 ng/ml,92.1%
same,% inhibition of invasion of primary exocervical cells,"[5]; rI domain 1 ng/ml, listed as rI-domain",over 90%
same,% inhibition of invasion of primary exocervical cells,[5]; rI domain 10 ng/ml,94.6%
same,% inhibition of invasion of primary exocervical cells,[5]; rI domain 100 ng/ml,96.8%
same,% inhibition of invasion of primary exocervical cells,"[5]; rI domain 1 μg/ml, N. gonorrhoeae 1291",98.56%

# — patent US7261901B2, “Vaccine and compositions for the prevention and treatment of neisserial infections” (University of Iowa Research Foundation, priority 2001, dated 2007)
